# Measurements taken from patent US20110152317A1, “P[…] OCCURRENCE OF OBESITY” (DUKE UNIVERSITY, priority 2008, published 2011).
# What was measured:
# [1] = system: human on high-fat diet; test: Oral chloroquine in a human on a high-fat diet (Working Example I); type: in vivo; conditions: person, 400 mg orally daily, 12 weeks
# Protocol: A person with BMI of 20 eats a diet where 50% of calories come from fat, e.g. cheeseburgers or steak, onion rings or french fries, and ice cream or pecan pie for dessert at dinner, cold cut sandwich and fries or pizza for lunch, eggs, sausage, hash browns for breakfast. The subject also orally takes 400 mg chloroquine orally daily. The regimen is continued for 12 weeks.
# [2] = system: male C57BL/6 mice on a high-fat diet; test: Chloroquine injection in mice on high-fat diet (obesity, insulin resistance, skeletal muscle lipid profiling); type: in vivo, mouse; conditions: high-fat diet (60% of calories from fat), 60 mg/kg intraperitoneal daily for 12 weeks
# Description: Five adult (12 week old) male C57BL/6 mice (The Jackson Laboratory, Bar Harbor, ME) were subjected to 12 weeks of high-fat diet (HF) (60% of calories from fat) with a separate group of five mice on normal chow (NC) for the same duration as control. A significant difference in body weight between NC and HF mice was detected 4 weeks after implementation of the high-fat diet, and the body weight of the HF group continued to increase to about 55.4% above the value in age matched NC mice after 12 weeks of the high-fat diet. […] NC mice. The development of severe obesity in HF mice was accompanied by 89.0% increase (P<0.001) in blood glucose area under curve (AUC) during a glucose tolerance test. These findings indicate that high-fat diet in adult mice induced severe obesity and insulin resistance.
# Five of the same kind of non-obese mice as used in Background Example 1 on a high-fat diet (60% of calories from fat) were injected with chloroquine (60 mg/kg, intraperitoneal) daily for 12 weeks of high-fat diet feeding.
compound,measurement,setting,value
CCN(CC)CCCC(C)Nc1ccnc2cc(Cl)ccc12 (centres unmarked) [chloroquine],BMI,"[1]; baseline BMI 20, diet 50% of calories from fat",20
same,development of insulin resistance,[1]; diet 50% of calories from fat,does not develop insulin resistance
same,high-fat diet induced changes in skeletal muscle (mass spectrometry-based profiling of lipid species),[2],blocked high-fat diet induced changes in skeletal muscle
same,occurrence of insulin resistance (glucose tolerance test),[2],blocked the occurrence of obesity and insulin resistance
same,occurrence of obesity,[2],blocked the occurrence of obesity
